Data reported in patent US12436145B2, “Cryptic antibiotics and methods for detecting bioactive cryptic metabolites” (THE TRUSTEES OF PRINCETON UNIVERSITY, priority 2019, dated 2025).
≈ marks a conversion by molar mass, not a printed value. Read-outs that look alike come from different tables or passages of the source.

Tests used:
S. lavendulae = assay: Elicitor screening, supernatants in disc diffusion assays against B. subtilis; type: cell-based, Streptomyces lavendulae; conditions: S. lavendulae grown with ~33 μM elicitor, 5 days; supernatant on B. subtilis disc diffusion
Protocol: For the high-throughput-elicitor screening portion of this example, the procedure is described for S. hiroshimensis. An identical procedure was used for S. lavendulae and A. keratiniphila. […] The culture was incubated at 30° C./250 rpm for two days. Then, the mycelia cell mass was pelleted by centrifugation, the supernatant discarded, and a stock solution of 100 mg/mL cell mass was generated in R4 medium. The stock solution was used to prepare the appropriate volume (see below) of R4 medium containing 0.5 mg/mL mycelia cell mass in a 250 mL Erlenmeyer flask. The suspension was homogenized by stirring at room temperature. Subsequently, a MultiFlow Dispenser (from Biotek, Inc.) was used to dispense 150 μL of the suspension into each well of six sterile round bottom 96 well plates (from Corning, Inc.). Candidate elicitors were added from a commercially-available 502-member Natural Products Library (from Enzo Life Sciences, Inc.) using a CYBI-WELL™ automated liquid transfer robot (from CyBio AG). A volume of 0.5 μL was transferred from the compound library into each well to give a final concentration of ^˜33 μM. […]
The resulting agar plates were assessed visually, and subsequently examined visually for halos. To generate FIG. 2, the halo diameter, if any, was measured and categorized as none (n), weak (w), medium (m), or strong (s) inhibition. […]

A. baumannii ATCC 19606 = assay: Minimal inhibitory concentration (CLSI methods); type: cell-based, Acinetobacter baumannii
Protocol: (§1) Antibacterial assays with taylorflavin B (8) were carried out by Micromyx, LLC in accordance with methods from the Clinical and Laboratory Standards Institute. Minimal inhibitory concentrations were determined with the following strains: E. coli ATCC 25922, A. baumannii ATCC 19606, V. cholerae BAA-2163, N. gonorrhoeae ATCC 49226, P. aeruginosa ATCC 27853, K. pneumoniae MMX 214. S. aureus ATCC 29213, S. aureus MMX 2011, S. pneumoniae ATCC 49619, S. pyogenes MMX 6253, S. agalactiae MMX 6189, E. faecalis ATCC 29212, E. faecalis MMX 486, B. subtilis ATCC 6633, C. difficile ATCC 700057, B. fragilis ATCC 25285. Assays with taylorflavin A (7) were carried in-house according to the same protocols.

V. cholerae BAA-2163 = assay: Minimal inhibitory concentration (CLSI methods); type: cell-based, Vibrio cholerae
Protocol: as §1

B. fragilis ATCC 25285 = assay: Minimal inhibitory concentration (CLSI methods); type: cell-based
Protocol: as §1

B. subtilis ATCC 6633 = assay: Minimal inhibitory concentration (CLSI methods); type: cell-based
Protocol: as §1

C. difficile ATCC 700057 = assay: Minimal inhibitory concentration (CLSI methods); type: cell-based
Protocol: as §1

E. coli ATCC 25922 = assay: Minimal inhibitory concentration (CLSI methods); type: cell-based
Protocol: as §1

E. faecalis ATCC 29212 = assay: Minimal inhibitory concentration (CLSI methods); type: cell-based; conditions: E. faecalis VSE
Protocol: as §1

E. faecalis MMX 486 = assay: Minimal inhibitory concentration (CLSI methods); type: cell-based; conditions: E. faecalis VRE
Protocol: as §1

K. pneumoniae MMX 214 = assay: Minimal inhibitory concentration (CLSI methods); type: cell-based
Protocol: as §1

[1] = tested on: N. gonorrhoeae ATCC 49226; assay: Minimal inhibitory concentration (CLSI methods); type: cell-based
Protocol: as §1

P. aeruginosa ATCC 27853 = assay: Minimal inhibitory concentration (CLSI methods); type: cell-based
Protocol: as §1

S. agalactiae MMX 6189 = assay: Minimal inhibitory concentration (CLSI methods); type: cell-based
Protocol: as §1

S. aureus ATCC 29213 = assay: Minimal inhibitory concentration (CLSI methods); type: cell-based
Protocol: as §1

S. aureus MMX 2011 = assay: Minimal inhibitory concentration (CLSI methods); type: cell-based; conditions: S. aureus MRSA
Protocol: as §1

S. pneumoniae ATCC 49619 = assay: Minimal inhibitory concentration (CLSI methods); type: cell-based; conditions: S. pneumoniae PSPP
Protocol: as §1

S. pyogenes MMX 6253 = assay: Minimal inhibitory concentration (CLSI methods); type: cell-based
Protocol: as §1

[2] = tested on: collection of Gram-positive bacteria; assay: Antibacterial assays, Gram-positive panel; type: cell-based
Protocol: as §1

E. coli = assay: In-house bioactivity assays of induced peaks and purified taylorflavins; type: cell-based
S. hiroshimensis A18 = assay: Validation of elicitor: disc diffusion assay of culture extracts on E. coli ZSR638; type: cell-based, Streptomyces hiroshimensis; conditions: S. hiroshimensis culture induced by 33 μM atenolol; uninduced control none
Protocol: Seed cultures of S. hiroshimensis A18 were prepared as described for the HiTES screen above. […] A control flask was prepared containing the same volume of DMSO, rather than atenolol. The culture was incubated at 30° C./200 rpm. […] The organic phases were combined, divided in two, and dried in vacuo.
For the disc diffusion assays, the dried control and atenolol-treated culture extracts were dissolved in 100 μL of DMSO each. Filter paper discs were infused with 30 μL of each sample, allowed to dry, and then placed on a soft LB agar (1% agarose) plate inoculated with E. coli ZSR638 at a concentration of 2×10^6 cells/mL. The agar plate was incubated at 37° C. for 10 h and then inspected visually.

several Vibrio strains = assay: Cebulantin bioactivity screen (IC50); type: cell-based; conditions: range over several Vibrio strains
[3] = tested on: Gram-positive bacteria tested; assay: Cebulantin bioactivity screen; type: cell-based
β-galactosidase = conditions: cited from earlier work

Compound: COc1ccc2c(=O)cc(-c3ccccc3OC)oc2c1 [7,2′-dimethoxyflavone]
- induction of anti-B. subtilis metabolite(s) (S. lavendulae): appeared to induce synthesis of anti-B. subtilis metabolite(s)

Compound: Cn1nc2c(nc1=O)c(=O)n(C)c(=O)n2C [Taylorflavin B, 2-methylfervenulone]
- minimal inhibitory concentration (MIC) (A. baumannii ATCC 19606): 16 µg/mL (≈ 71.7 µM)
- minimal inhibitory concentration (MIC) (V. cholerae BAA-2163): 16 µg/mL (≈ 71.7 µM)
- minimal inhibitory concentration (MIC) (B. fragilis ATCC 25285): >64 µg/mL
- minimal inhibitory concentration (MIC) (B. subtilis ATCC 6633): 64 µg/mL (≈ 287 µM)
- minimal inhibitory concentration (MIC) (C. difficile ATCC 700057): >64 µg/mL
- minimal inhibitory concentration (MIC) (E. coli ATCC 25922): 16 µg/mL (≈ 71.7 µM)
- minimal inhibitory concentration (MIC) (E. faecalis ATCC 29212): >64 µg/mL
- minimal inhibitory concentration (MIC) (E. faecalis MMX 486): 64 µg/mL (≈ 287 µM)
- minimal inhibitory concentration (MIC) (K. pneumoniae MMX 214): >64 µg/mL
- minimal inhibitory concentration (MIC) [1]: 4 µg/mL (≈ 17.9 µM)
- minimal inhibitory concentration (MIC) (P. aeruginosa ATCC 27853): >64 µg/mL
- minimal inhibitory concentration (MIC) (S. agalactiae MMX 6189): 32 µg/mL (≈ 143 µM)
- minimal inhibitory concentration (MIC) (S. aureus ATCC 29213): 64 µg/mL (≈ 287 µM)
- minimal inhibitory concentration (MIC) (S. aureus MMX 2011): 64 µg/mL (≈ 287 µM)
- minimal inhibitory concentration (MIC) (S. pneumoniae ATCC 49619): 32 µg/mL (≈ 143 µM)
- minimal inhibitory concentration (MIC) (S. pyogenes MMX 6253): 32 µg/mL (≈ 143 µM)
- growth inhibition of Gram-positive bacteria [2]: did not inhibit the growth
- antibiotic activity / inhibition of E. coli growth (E. coli): more potent inhibitor
- antibiotic activity / inhibition of E. coli growth (E. coli; listed as 8): antibiotic activity

Compound: CC(C)NCC(O)COc1ccc(CC(N)=O)cc1 (stereo not drawn) [atenolol]
- zone of inhibition on E. coli agar plates (S. hiroshimensis A18): clear zone of inhibition

Compound: C/C=C1\NC(=O)CNC(=O)[C@H](Cc2ccccc2)NC(=O)[C@H](NC(=O)[C@@H](NC(=O)[C@@H]2CCCN2C(=O)CN)[C@@H](C)CC)[C@H](C)SC[C@@H]2NC(=O)[C@H](NC1=O)[C@H](C)SC[C@@H](C(=O)N1CCC[C@H]1C(=O)N[C@@H]1CSC[C@@H](C(=O)O)NC(=O)[C@H](CO)NC(=O)[C@H](C(C)C)NC(=O)/C(=C/C)NC(=O)[C@H](CC(N)=O)NC(=O)[C@H](C)NC1=O)NC(=O)[C@@H]1C[C@@H](O)CN1C(=O)/C(=C/C)NC(=O)CNC(=O)[C@H](Cc1c[nH]c3ccccc13)NC2=O [cebulantin]
- IC50 (several Vibrio strains): 8.8 to 29.1 µM
- growth-inhibitory activity [3]: no growth-inhibitory activity
- IC50 (E. coli (ΔlptD)): 9.7 µM
- IC50 (V. parahaemolyticus): 8.8 ± 2.1 µM
- IC50 (V. cholerae): 14.1 ± 2.4 µM
- IC50 (V. alginolyticus): 24.5 ± 3.2 µM
- IC50 (V. ordahi): 27 ± 5.4 µM
- IC50 (V. anguillarum): 29.1 ± 8.2 µM
- IC50 (P. aeruginose): 47 ± 11.4 µM
- IC50 (S. aureus): > 100 µM
- IC50 (B. subtilis): > 100 µM

Compound: OCc1cc2c([nH]c3ccccc32)c(C(O)CO)n1 (stereo not drawn) [pyridindolol]
- inhibitory activity against β-galactosidase (β-galactosidase): inhibitory activity
